{"source": "paper PMC5074247", "about": "(Biopharmaceutics & Drug Disposition, 2016)", "key": {"[1]": {"conditions": "ref manufacturer's interview form; cited from earlier work"}, "[2]": {"conditions": "cited from earlier work"}, "[3]": {"conditions": "cited from earlier work", "remark": "listed apart in the source"}, "[4]": {"tested_on": "DPP‐4", "conditions": "against DPP‐4 ref 2; cited from earlier work"}, "[5]": {"conditions": "ZDF rat model; compared with sitagliptin ref 39; cited from earlier work"}, "[6]": {"conditions": "intravenously administered to rats at doses above 3 mg/kg ref 23; cited from earlier work"}, "[7]": {"type": "in vivo, Sprague–Dawley rats", "conditions": "oral 1 mg/kg [^14C]teneligliptin, SD rats"}}, "note": "Read-outs that look alike come from different tables or passages of the source.", "data": [{"smiles": "Cn1c(=O)cc(N2CCC[C@@H](N)C2)n(Cc2ccccc2C#N)c1=O", "note": "[Alogliptin]", "values": [{"measurement": "pKa", "setting": "[1]", "result": 8.5}, {"measurement": "K p of radioactivity", "setting": "[2]; Heart, oral 3 mg/kg, 4 h, rats ref 22", "result": 2.36}, {"measurement": "K p of radioactivity", "setting": "[2]; Kidney, oral 3 mg/kg, 4 h, rats ref 22", "result": 29.7}, {"measurement": "K p of radioactivity", "setting": "[2]; Liver, oral 3 mg/kg, 4 h, rats ref 22", "result": 17.3}, {"measurement": "K p of radioactivity", "setting": "[2]; Lung, oral 3 mg/kg, 4 h, rats ref 22", "result": 8.6}, {"measurement": "K p of radioactivity", "setting": "[2]; Pancreas, oral 3 mg/kg, 4 h, rats ref 22", "result": 4.94}, {"measurement": "V ss", "setting": "[3]; intravenous administration to rats ref 19", "result": "3.5 19 l/kg"}]}, {"smiles": "Cc1cc2ncc(C(=O)NCC(C)(C)NCC(=O)N3CCC[C@H]3C#N)cn2n1.Cl", "note": "[Anagliptin, N‐[2‐({2‐[(2S)‐2‐cyanopyrrolidin‐1‐yl]‐2‐oxoethyl}amino)‐2‐methylpropyl]‐2‐methylpyrazolo[1,5‐a]pyrimidine‐6‐carboxamide hydrochloride]", "values": [{"measurement": "pKa", "setting": "[1]", "result": 6.7}, {"measurement": "K p of radioactivity", "setting": "[2]; Heart, oral 10 mg/kg, 6 h, rats ref 21", "result": 0.74}, {"measurement": "K p of radioactivity", "setting": "[2]; Kidney, oral 10 mg/kg, 6 h, rats ref 21, 10 mg/kg", "result": 6.71}, {"measurement": "K p of radioactivity", "setting": "[2]; Liver, oral 10 mg/kg, 6 h, rats ref 21", "result": 4.36}, {"measurement": "K p of radioactivity", "setting": "[2]; Lung, oral 10 mg/kg, 6 h, rats ref 21", "result": 1.50}, {"measurement": "K p of radioactivity", "setting": "[2]; Pancreas, oral 10 mg/kg, 6 h, rats ref 21", "result": 0.81}, {"measurement": "V ss", "setting": "[3]; intravenous administration to rats ref 2", "result": 0.68, "unit": "L/kg"}, {"measurement": "IC50", "setting": "[4]", "result": 3.8, "unit": "nM"}]}, {"smiles": "CC#CCn1c(N2CCC[C@@H](N)C2)nc2c1c(=O)n(Cc1nc(C)c3ccccc3n1)c(=O)n2C", "note": "[Linagliptin, 8‐(3‐I‐aminopiperidin‐1‐yl)‐7‐but‐2‐ynyl‐3‐methyl‐1‐(4‐methyl‐quinazolin‐2‐ylmethyl)‐3,7‐dihydropurine‐2,6‐dione]", "values": [{"measurement": "acetylcholine‐induced vascular relaxation", "setting": "[5]", "result": "significantly stronger"}, {"measurement": "K p of radioactivity", "setting": "[2]; Heart, oral 2 mg/kg, 4 h, rats ref 23", "result": 4.78}, {"measurement": "K p of radioactivity", "setting": "[2]; Kidney, oral 2 mg/kg, 4 h, rats ref 23, 2 mg/kg", "result": 113}, {"measurement": "K p of radioactivity", "setting": "[2]; Kidney, oral 2 mg/kg, 4 h, rats ref 23, listed as linagliptin, 2 mg/kg", "result": "around 100"}, {"measurement": "K p of radioactivity", "setting": "[2]; Liver, oral 2 mg/kg, 4 h, rats ref 23", "result": 42.3}, {"measurement": "K p of radioactivity", "setting": "[2]; Lung, oral 2 mg/kg, 4 h, rats ref 23", "result": 11.1}, {"measurement": "tissue distribution", "setting": "[6]", "result": "non‐linear tissue distribution"}, {"measurement": "V ss", "setting": "[3]; intravenous administration to rats ref 23", "result": 50.3, "unit": "L/kg"}]}, {"smiles": "Cc1cc(N2CCN(C3CNC(C(=O)N4CC[S+]([O-])C4)C3)CC2)n(-c2ccccc2)n1", "note": "(stereo not shown) [M1]", "values": [{"measurement": "metabolite detection in plasma", "setting": "[7]; plasma, 0.5 h", "result": "detected at low levels"}]}, {"smiles": "O=C(C1CC(N2CCN(c3cc(CO)nn3-c3ccccc3)CC2)CN1)N1CCSC1", "note": "(stereo not shown) [M4]", "values": [{"measurement": "metabolite detection in kidney", "setting": "[7]; kidney, 0.5, 24 and 72 h", "result": "detected in trace concentrations"}]}, {"smiles": "N#C[C@@H]1C[C@@H]2C[C@@H]2N1C(=O)[C@@H](N)C12CC3CC(CC(O)(C3)C1)C2", "note": "[Saxagliptin]", "values": [{"measurement": "pKa", "setting": "[1]", "result": 7.3}, {"measurement": "V ss", "setting": "[3]; intravenous administration to rats ref 20", "result": "5.2 20 l/kg"}]}, {"smiles": "N[C@@H](CC(=O)N1CCn2c(nnc2C(F)(F)F)C1)Cc1cc(F)c(F)cc1F", "note": "[Sitagliptin, (2R)‐4‐Oxo‐4‐[3‐(trifluoromethyl)‐5,6‐dihydro[1,2,4]‐triazolo[4,3‐a]pyrazin‐7(8H)‐yl]‐1‐(2,4,5‐trifluorophenyl)butan‐2‐amine]", "values": [{"measurement": "pKa", "setting": "[1]", "result": 7.7}, {"measurement": "K p of radioactivity", "setting": "[2]; Heart, oral 5 mg/kg, 4 h, rats ref 25", "result": 2.73}, {"measurement": "K p of radioactivity", "setting": "[2]; Kidney, oral 5 mg/kg, 4 h, rats ref 25", "result": 14.7}, {"measurement": "K p of radioactivity", "setting": "[2]; Liver, oral 5 mg/kg, 4 h, rats ref 25", "result": 22.0}, {"measurement": "K p of radioactivity", "setting": "[2]; Lung, oral 5 mg/kg, 4 h, rats ref 25", "result": 9.09}, {"measurement": "K p of radioactivity", "setting": "[2]; Pancreas, oral 5 mg/kg, 4 h, rats ref 25", "result": 5.69}, {"measurement": "V ss", "setting": "[3]; intravenous administration to rats ref 25", "result": "8.8 25 l/kg"}]}, {"smiles": "N#C[C@@H]1CCCN1C(=O)CNC12CC3CC(CC(O)(C3)C1)C2", "note": "[Vildagliptin, 1‐[[(3‐Hydroxy‐1‐adamantyl)amino]acetyl]‐2‐cyano‐(S)‐pyrrolidine]", "values": [{"measurement": "pKa", "setting": "[1]", "result": 7.6}, {"measurement": "K p of radioactivity", "setting": "[2]; Heart, oral 100 mg/kg, 4 h, rats ref 26", "result": 1.48}, {"measurement": "K p of radioactivity", "setting": "[2]; Kidney, oral 100 mg/kg, 4 h, rats ref 26", "result": 13.4}, {"measurement": "K p of radioactivity", "setting": "[2]; Liver, oral 100 mg/kg, 4 h, rats ref 26", "result": 13.6}, {"measurement": "K p of radioactivity", "setting": "[2]; Lung, oral 100 mg/kg, 4 h, rats ref 26", "result": 2.60}, {"measurement": "K p of radioactivity", "setting": "[2]; Pancreas, oral 100 mg/kg, 4 h, rats ref 26", "result": 3.29}]}]}
